Tested on: human epidermal keratinocytes
Experiment: 3H-2-deoxyglucose uptake in epidermal keratinocytes
Format: cell-based
Conditions: for promotion effect relative to that of adenosine at the same concentration: p<0.05; for action of promoting epidermal keratinocytic glucose uptake (qualitative): FIG. 1
Description: The influence of purine base on glucose uptake in epidermal keratinocytes was examined using adenosine 5′-phosphate-2Na (AMP-2Na), adenosine and inosine as test compounds. As a control, the experiment was carried out in a similar manner without using the test compound.
Human epidermal keratinocyates (normal human neonatal foreskin epidermal keratinocytes, “Epidercell NHEK(F)”, product of Kurabo industries, Ltd.) were initially cultured in a 10-cm petri dish and stored in a frozen state until use. At the time of use, the cryopreserved cells were cultured on a 24-well plate for about 6 to 7 days and subjected to this experiment when the cells were 70-80% confluent.
A glucose-free medium was prepared by adding to a serum-free medium for the growth of epidermal keratinocytes (“HuMedia-KG2”, special ordered medium, product of Kurabo Industries, Ltd.) 1 ml of calcium solution and 0.1 ml of phenol red packaged with the medium product. Bovine serum albumin (BSA) treated with activated carbon to remove impurities was added to the medium to become a concentration of 1% and the medium was adjusted to pH 7.4 with NaOH.
1 ml of 10 mM 2-deoxyglucose, 60 μl of 250 μCi/250 μl ^3H-2-deoxyglucose and 940 μl of 1% BSA/glucose-free medium (pH 7.4) were mixed.
Epidermal keratinocytes cultured in a 24-well plate were washed with PBS(−) (Ca^2+ and Mg^2+ free phosphate buffered saline) three times. After addition of serum-free medium for the growth of epidermal keratinocytes (“HuMedia-KG2”, special ordered medium, product of Kurabo Industries, Ltd.), the cells were cultured for 2 hours and then washed with PBS(−) three times. After addition of 1 ml of 1% BSA/glucose-free medium (pH 7.4) in which the test compound was dissolved, the cells were cultured for 30 minutes and then 20 μl of ^3H-2-deoxyglucose solution was added per ml of the medium. The cells were allowed to stand for 10 minutes and then washed with ice-cooled glucose-containing PBS(−) three times. After addition of 0.5 ml of 0.1N NaOH containing 0.1% SDS, the cells ware allowed to stand in a static condition for at least 2 hours to produce a cell lysate solution. 0.5 ml of 0.11N HCl containing 0.1% SDS was added to acidify the cell lysis solution. 80 μl of the cell lysate solution was used for protein assay (“DC Protein Assay”, product of Bio-Rad), and 750 μl of the same was placed into a glass bottle. 20 ml of a liquid scintillation cocktail (ACS-II, product of Amersham) was added. After gently stirring the mixture, radioactivity was assayed using the liquid scintillation counter. The radioactivity per unit amount of protein was determined from the measured radioactivity and the amount of ^3H-2-deoxyglucose uptake (H-DPM (μg)/μg protein) was calculated by subtracting the radioactivity due to non-specific 3H-2-deoxyglucose uptake.
The above experiment was carried out twice and the mean averages were calculated. For comparison with the control, each value was converted to a ratio to the control value set as 1. […] In FIG. 1, the abscissa designates the concentration (log M) of each purine base (AMP-2Na, adenosine, inosine), and the ordinate designates the ratio of cellular 2-deoxyglucose uptake amount (H-DPM (μg)/μg protein) relative to the control set as 1.

| Structure (SMILES) | promotion of glucose uptake relative to control (ratio, control = 1) (10^-5 M, first experiment) | promotion of glucose uptake relative to control (ratio, control = 1) (10^-5 M, second experiment) | promotion of glucose uptake relative to control (ratio, control = 1) (10^-6 M, first experiment) | promotion effect relative to that of adenosine at the same concentration (10^-6 M, first experiment) | promotion of glucose uptake relative to control (ratio, control = 1) (10^-6 M, second experiment) | promotion effect relative to that of adenosine at the same concentration (10^-6 M, second experiment) | glucose uptake promotion compared with inosine (qualitative) (low concentration (10^-7 M)) | action of promoting epidermal keratinocytic glucose uptake (qualitative) |
| --- | --- | --- | --- | --- | --- | --- | --- | --- |
| Nc1ncnc2c1ncn2[C@@H]1O[C@H](COP(=O)([O-])[O-])[C@@H](O)[C@H]1O.[Na+].[Na+] [AMP-2Na, adenosine 5′-phosphate-2Na] | about 1.61 times | about 1.43 times | about 1.48 times | about 1.16 times | about 1.48 times | about 1.32 times | promotes glucose uptake more effectively than inosine | – |
| Nc1ncnc2c1ncn2[C@@H]1O[C@H](CO)[C@@H](O)[C@H]1O [adenosine] | – | – | – | – | – | – | – | have the action of promoting epidermal keratinocytic glucose uptake |
| OC[C@H]1O[C@@H](n2cnc3c(O)ncnc32)[C@H](O)[C@@H]1O [inosine] | – | – | – | – | – | – | – | have the action of promoting epidermal keratinocytic glucose uptake |

Reference: patent US7820636B2, “Sugar intake promoters” (Otsuka Pharmaceutical Co., Ltd., priority 2001, dated 2010)
